Tested on: MOLM-13 cells
Assay: In vitro proliferation (Cell Titer Glo, 6 days) of Compound 51 in combination with gilteritinib, midostaurin, idarubicin or decitabine, MOLM-13
Format: cell-based, human
Design: key to maxR call (synergy/antagonism), combination with Gilteritinib on MOLM-13 cell proliferation / Synergy/antagonism call (maxR test), MOLM-13 Cell Proliferation: synergy is indicated by “**”; antagonism is indicated by “*”; no asterisk: absence of any asterisk indicates an additive effect
Procedure: 3) In Vitro Proliferation—Menin-MLL Inhibitor in Combination with FLT3 Inhibitor (Gilteritinib or Midostaurin), DNA Intercalating Agent (Idarubicin) or Hypomethylating Agent (Decitabine)
The effect of Compound 51 in combination with gilteritinib, midostaurin, idarubicin or decitabine was determined in proliferation assays.
AML cell lines MOLM-13, OCI-AML3 and MV4-11 were purchased from DSMZ. MOLM-13 were grown in RPMI medium supplemented with 10% Fetal Bovine Serum (FBS) and 1% penicillin/streptomycin. MV4-11 cells were grown in IMDM medium supplemented with 10% FBS and 1% penicillin/streptomycin. OCI-AML3 cells were cultured in 80-90% alpha-MEM (with or without ribo- and deoxyribonucleosides)+10-20% FBS. All cell lines were cultured at 37° C. in 5% CO2 atmosphere.
AML cell lines (10-20×10^3 cells/well) were seeded in 96-well plates and grown for 6 days in serum (10%)-containing medium in the presence or absence of inhibitors at the indicated concentrations. Proliferation was analyzed by means of a Cell Titer Glo assay using the […] (Promega, Madison, WI, USA), according to the manufacturer's instructions. Data are mean with standard deviation from two to four independent experiments in technical triplicates.
R-based Biochemically Intuitive Generalized Loewe (BIGL) model implemented with a highest single agent (HSA) null model. Specifically, the BIGL methodology was applied to calculate drug-drug interactions (Van der Borght, K., Tourny, A., Bagdziunas, R. et al. BIGL: Biochemically Intuitive Generalized Loewe null model for prediction of the expected combined effect compatible with partial agonism and antagonism. Sci Rep 7, 17935 (2017); Thas, O., Tourny, A., Verbist, B., Hawinkel, S., Nazarov, M., Mutambanengwe, K., & Bijnens, L. Statistical detection of synergy: New methods and a comparative study. Pharmaceutical Statistics (2021)).
Synergy matrix results of the BIGL analysis of the cell line data with HSA as mean model calculated on the basis of the cellular metabolic activity using Cell Titer-Glo assay. Bootstrap confidence intervals are indicated. Effect sizes and their confidence intervals are shown. […] No significant average effect if zero is included in the interval.

[1] = Compound 51 0.01 μm, Gilteritinib 0.01 μM
[2] = Compound 51 0.05 μm + Decitabine 0.015 μM
[3] = Compound 51 0.05 μm + Decitabine 0.15 μM
[4] = Compound 51 0.05 μm + Idarubicin 0.001 μM
[5] = Compound 51 0.05 μm + Midostaurin 0.006 μM

CC(=O)N1CCC(CN2CC[C@@H](Cc3cn(-c4ccc(F)cc4C(=O)N(C)C(C)C)c4cncc(C)c34)C2)CC1 [Compound 51]
Effect size (BIGL, HSA null model), MOLM-13 Cell Proliferation (Compound 51 0.0001 μm + Idarubicin 0.0005 μM): −0.05 | Effect size (BIGL, HSA null model), MOLM-13 Cell Proliferation (Compound 51 0.0001 μm + Idarubicin 0.001 μM): −0.02 | Effect size (BIGL, HSA null model), MOLM-13 Cell Proliferation (Compound 51 0.0001 μm + Idarubicin 0.0025 μM): 0.07 | Effect size (BIGL, HSA null model), MOLM-13 Cell Proliferation (Compound 51 0.0001 μm + Idarubicin 0.005 μM): −0.1 | Effect size (BIGL, HSA null model), MOLM-13 Cell Proliferation (Compound 51 0.0001 μm + Idarubicin 0.05 μM): 0.03 | Effect size (BIGL, HSA null model), MOLM-13 Cell Proliferation (Compound 51 0.0001 μm + Idarubicin 0.5 μM): 0.02 | Effect size (BIGL, HSA null model), MOLM-13 Cell Proliferation (Compound 51 0.0001 μm + Midostaurin 0.0012 μM): −0.07 | Effect size (BIGL, HSA null model), MOLM-13 Cell Proliferation (Compound 51 0.0001 μm + Midostaurin 0.006 μM): −0.02 | Effect size (BIGL, HSA null model), MOLM-13 Cell Proliferation (Compound 51 0.0001 μm + Midostaurin 0.025 μM): 0.05 | Effect size (BIGL, HSA null model), MOLM-13 Cell Proliferation (Compound 51 0.0001 μm + Midostaurin 0.05 μM): −0.06 | Effect size (BIGL, HSA null model), MOLM-13 Cell Proliferation (Compound 51 0.0001 μm + Midostaurin 0.1 μM): −0.04 | Effect size (BIGL, HSA null model), MOLM-13 Cell Proliferation (Compound 51 0.0001 μm + Midostaurin 0.5 μM): −0.02 | Effect size (BIGL, HSA null model), MOLM-13 Cell Proliferation (Compound 51 0.001 μm + Decitabine 0.0015 μM): −0.03 | Effect size (BIGL, HSA null model), MOLM-13 Cell Proliferation (Compound 51 0.001 μm + Decitabine 0.015 μM): −0.07 | Effect size (BIGL, HSA null model), MOLM-13 Cell Proliferation (Compound 51 0.001 μm + Decitabine 0.15 μM): −0.03 | Effect size (BIGL, HSA null model), MOLM-13 Cell Proliferation (Compound 51 0.001 μm + Decitabine 1.5 μM): −0.03 | Effect size (BIGL, HSA null model), MOLM-13 Cell Proliferation (Compound 51 0.001 μm + Decitabine 3 μM): −0.02 | Effect size (BIGL, HSA null model), MOLM-13 Cell Proliferation (Compound 51 0.001 μm + Idarubicin 0.0005 μM): −0.03 | Effect size (BIGL, HSA null model), MOLM-13 Cell Proliferation (Compound 51 0.001 μm + Idarubicin 0.001 μM): −0.07 | Effect size (BIGL, HSA null model), MOLM-13 Cell Proliferation (Compound 51 0.001 μm + Idarubicin 0.0025 μM): 0.04 | Effect size (BIGL, HSA null model), MOLM-13 Cell Proliferation (Compound 51 0.001 μm + Idarubicin 0.005 μM): −0.1 | Effect size (BIGL, HSA null model), MOLM-13 Cell Proliferation (Compound 51 0.001 μm + Idarubicin 0.05 μM): 0.02 | Effect size (BIGL, HSA null model), MOLM-13 Cell Proliferation (Compound 51 0.001 μm + Idarubicin 0.5 μM): 0.02 | Effect size (BIGL, HSA null model), MOLM-13 Cell Proliferation (Compound 51 0.001 μm + Midostaurin 0.0012 μM): −0.03 | Effect size (BIGL, HSA null model), MOLM-13 Cell Proliferation (Compound 51 0.001 μm + Midostaurin 0.006 μM): −0.02 | Effect size (BIGL, HSA null model), MOLM-13 Cell Proliferation (Compound 51 0.001 μm + Midostaurin 0.025 μM): 0.07 | Effect size (BIGL, HSA null model), MOLM-13 Cell Proliferation (Compound 51 0.001 μm + Midostaurin 0.05 μM): −0.06 | Effect size (BIGL, HSA null model), MOLM-13 Cell Proliferation (Compound 51 0.001 μm + Midostaurin 0.1 μM): −0.04 | Effect size (BIGL, HSA null model), MOLM-13 Cell Proliferation (Compound 51 0.001 μm + Midostaurin 0.5 μM): −0.02 | Effect size (BIGL, HSA null model), combination with Gilteritinib on MOLM-13 cell proliferation (Compound 51 0.001 μm, Gilteritinib 0.0005 μM): −0.01 | Effect size (BIGL, HSA null model), combination with Gilteritinib on MOLM-13 cell proliferation (Compound 51 0.001 μm, Gilteritinib 0.005 μM): −0.06 | Effect size (BIGL, HSA null model), combination with Gilteritinib on MOLM-13 cell proliferation (Compound 51 0.001 μm, Gilteritinib 0.01 μM): −0.1 | Effect size (BIGL, HSA null model), combination with Gilteritinib on MOLM-13 cell proliferation (Compound 51 0.001 μm, Gilteritinib 0.05 μM): −0.02 | Effect size (BIGL, HSA null model), combination with Gilteritinib on MOLM-13 cell proliferation (Compound 51 0.001 μm, Gilteritinib 0.1 μM): 0.02 | Effect size (BIGL, HSA null model), combination with Gilteritinib on MOLM-13 cell proliferation (Compound 51 0.001 μm, Gilteritinib 1 μM): −0.01 | Effect size (BIGL, HSA null model), MOLM-13 Cell Proliferation (Compound 51 0.01 μm + Decitabine 0.0015 μM): 0 | Effect size (BIGL, HSA null model), MOLM-13 Cell Proliferation (Compound 51 0.01 μm + Decitabine 0.015 μM): −0.09 | Effect size (BIGL, HSA null model), MOLM-13 Cell Proliferation (Compound 51 0.01 μm + Decitabine 0.15 μM): −0.16 | Effect size (BIGL, HSA null model), MOLM-13 Cell Proliferation (Compound 51 0.01 μm + Decitabine 1.5 μM): −0.05 | Effect size (BIGL, HSA null model), MOLM-13 Cell Proliferation (Compound 51 0.01 μm + Decitabine 3 μM): −0.02 | Effect size (BIGL, HSA null model), MOLM-13 Cell Proliferation (Compound 51 0.01 μm + Idarubicin 0.0005 μM): −0.35 | Effect size (BIGL, HSA null model), MOLM-13 Cell Proliferation (Compound 51 0.01 μm + Idarubicin 0.001 μM): −0.73 | Effect size (BIGL, HSA null model), MOLM-13 Cell Proliferation (Compound 51 0.01 μm + Idarubicin 0.0025 μM): −0.26 | Effect size (BIGL, HSA null model), MOLM-13 Cell Proliferation (Compound 51 0.01 μm + Idarubicin 0.005 μM): −0.11 | Effect size (BIGL, HSA null model), MOLM-13 Cell Proliferation (Compound 51 0.01 μm + Idarubicin 0.05 μM): 0.02 | Effect size (BIGL, HSA null model), MOLM-13 Cell Proliferation (Compound 51 0.01 μm + Idarubicin 0.5 μM): 0.02 | Effect size (BIGL, HSA null model), MOLM-13 Cell Proliferation (Compound 51 0.01 μm + Midostaurin 0.0012 μM): 0.01 | Effect size (BIGL, HSA null model), MOLM-13 Cell Proliferation (Compound 51 0.01 μm + Midostaurin 0.006 μM): −0.06 | Effect size (BIGL, HSA null model), MOLM-13 Cell Proliferation (Compound 51 0.01 μm + Midostaurin 0.025 μM): 0.1 | Effect size (BIGL, HSA null model), MOLM-13 Cell Proliferation (Compound 51 0.01 μm + Midostaurin 0.05 μM): −0.06 | Effect size (BIGL, HSA null model), MOLM-13 Cell Proliferation (Compound 51 0.01 μm + Midostaurin 0.1 μM): −0.04 | Effect size (BIGL, HSA null model), MOLM-13 Cell Proliferation (Compound 51 0.01 μm + Midostaurin 0.5 μM): −0.02 | Effect size (BIGL, HSA null model), combination with Gilteritinib on MOLM-13 cell proliferation (Compound 51 0.01 μm, Gilteritinib 0.0005 μM): 0.01 | Effect size (BIGL, HSA null model), combination with Gilteritinib on MOLM-13 cell proliferation (Compound 51 0.01 μm, Gilteritinib 0.005 μM): −0.08 | Effect size (BIGL, HSA null model), combination with Gilteritinib on MOLM-13 cell proliferation [1]: −0.25 | maxR call (synergy/antagonism), combination with Gilteritinib on MOLM-13 cell proliferation [1]: ** | Effect size (BIGL, HSA null model), combination with Gilteritinib on MOLM-13 cell proliferation (Compound 51 0.01 μm, Gilteritinib 0.05 μM): −0.09 | Effect size (BIGL, HSA null model), combination with Gilteritinib on MOLM-13 cell proliferation (Compound 51 0.01 μm, Gilteritinib 0.1 μM): 0.1 | Effect size (BIGL, HSA null model), combination with Gilteritinib on MOLM-13 cell proliferation (Compound 51 0.01 μm, Gilteritinib 1 μM): −0.01 | Effect size (BIGL, HSA null model), MOLM-13 Cell Proliferation (Compound 51 0.05 μm + Decitabine 0.0015 μM): −0.03 | Effect size (BIGL, HSA null model), MOLM-13 Cell Proliferation [2]: −0.13 | Synergy/antagonism call (maxR test), MOLM-13 Cell Proliferation [2]: ** | Effect size (BIGL, HSA null model), MOLM-13 Cell Proliferation [3]: −0.32 | Synergy/antagonism call (maxR test), MOLM-13 Cell Proliferation [3]: ** | Effect size (BIGL, HSA null model), MOLM-13 Cell Proliferation (Compound 51 0.05 μm + Decitabine 1.5 μM): −0.05 | Effect size (BIGL, HSA null model), MOLM-13 Cell Proliferation (Compound 51 0.05 μm + Decitabine 3 μM): −0.03 | Effect size (BIGL, HSA null model), MOLM-13 Cell Proliferation (Compound 51 0.05 μm + Idarubicin 0.0005 μM): −0.1 | Effect size (BIGL, HSA null model), MOLM-13 Cell Proliferation [4]: −0.41 | Synergy/antagonism call (maxR test), MOLM-13 Cell Proliferation [4]: ** | Effect size (BIGL, HSA null model), MOLM-13 Cell Proliferation (Compound 51 0.05 μm + Idarubicin 0.0025 μM): −0.23 | Effect size (BIGL, HSA null model), MOLM-13 Cell Proliferation (Compound 51 0.05 μm + Idarubicin 0.005 μM): −0.11 | Effect size (BIGL, HSA null model), MOLM-13 Cell Proliferation (Compound 51 0.05 μm + Idarubicin 0.05 μM): 0.02 | Effect size (BIGL, HSA null model), MOLM-13 Cell Proliferation (Compound 51 0.05 μm + Idarubicin 0.5 μM): 0.02 | Effect size (BIGL, HSA null model), MOLM-13 Cell Proliferation (Compound 51 0.05 μm + Midostaurin 0.0012 μM): −0.03 | Effect size (BIGL, HSA null model), MOLM-13 Cell Proliferation [5]: −0.21 | Synergy/antagonism call (maxR test), MOLM-13 Cell Proliferation [5]: ** | Effect size (BIGL, HSA null model), MOLM-13 Cell Proliferation (Compound 51 0.05 μm + Midostaurin 0.025 μM): −0.14 | Effect size (BIGL, HSA null model), MOLM-13 Cell Proliferation (Compound 51 0.05 μm + Midostaurin 0.05 μM): 0.08 | Effect size (BIGL, HSA null model), MOLM-13 Cell Proliferation (Compound 51 0.05 μm + Midostaurin 0.1 μM): −0.04 | Effect size (BIGL, HSA null model), MOLM-13 Cell Proliferation (Compound 51 0.05 μm + Midostaurin 0.5 μM): −0.02 | Effect size (BIGL, HSA null model), combination with Gilteritinib on MOLM-13 cell proliferation (Compound 51 0.05 μm, Gilteritinib 0.0005 μM): −0.03
